Experimental data from ChEMBL document CHEMBL4138131, “Design, synthesis, kinetic mechanism and molecular docking studies of novel 1-pentanoyl-3-arylthioureas as inhibitors of mushroom tyrosinase and free radical scavengers” (Eur J Med Chem, 2017).
One block for each molecule: values may come before it. Activity calls are given as the source filed them. The rule behind the calls is not given here.

Tests used:
[1] = molecular target: T1, Tyrosinase (Agaricus bisporus, UniProt O42713); test: Inhibition of mushroom tyrosinase using L-DOPA as substrate preincubated for 10 mins followed by substrate addition measured for 20 mins
T1 sequence (O42713 whole entry): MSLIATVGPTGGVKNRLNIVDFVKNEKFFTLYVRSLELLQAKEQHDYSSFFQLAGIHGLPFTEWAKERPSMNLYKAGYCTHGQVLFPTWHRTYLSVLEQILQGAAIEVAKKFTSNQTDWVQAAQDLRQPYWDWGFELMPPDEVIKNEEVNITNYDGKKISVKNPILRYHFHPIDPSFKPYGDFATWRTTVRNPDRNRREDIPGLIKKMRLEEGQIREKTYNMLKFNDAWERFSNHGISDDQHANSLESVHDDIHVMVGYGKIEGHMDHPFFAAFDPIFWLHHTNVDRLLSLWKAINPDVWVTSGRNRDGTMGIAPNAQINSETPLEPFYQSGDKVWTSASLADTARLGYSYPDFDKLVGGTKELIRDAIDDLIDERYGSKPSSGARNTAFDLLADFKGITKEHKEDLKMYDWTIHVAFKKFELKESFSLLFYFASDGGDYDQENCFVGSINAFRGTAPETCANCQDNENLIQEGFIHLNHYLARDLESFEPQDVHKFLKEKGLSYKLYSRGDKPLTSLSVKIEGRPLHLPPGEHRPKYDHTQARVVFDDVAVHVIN

[2] = Antioxidant activity assessed as DPPH radical scavenging activity at 100 ug/ml relative to control; format: functional
[3] = molecular target: T2, Tyrosinase (Agaricus bisporus) (UniProt O42713); test: Non-competitive inhibition of mushroom tyrosinase at 0.271 to 4.336 uM using L-DOPA as substrate preincubated for 10 mins followed by substrate addition measured up to 5 mins by Line-weaver Burk plot analysis
T2 sequence (whole entry): T1 sequence (O42713 whole entry)

[4] = molecular target: T2, Tyrosinase (Agaricus bisporus); test: Potency index ratio of kojic acid IC50 to compound IC50 for inhibition of mushroom tyrosinase
[5] = molecular target: T1, Tyrosinase; test: Non-competitive inhibition of mushroom tyrosinase using L-DOPA as substrate preincubated for 10 mins followed by substrate addition measured up to 5 mins by Dixon plot analysis
[6] = molecular target: T2, Tyrosinase (Agaricus bisporus); test: Irreversible inhibition of mushroom tyrosinase at 0.271 to 4.336 uM using L-DOPA as substrate preincubated for 10 mins followed by substrate addition measured up to 5 mins by Line-weaver Burk plot analysis
[7] = molecular target: T2, Tyrosinase (Agaricus bisporus); test: Non-competitive inhibition of mushroom tyrosinase assessed as 1/Vmax at 0.271 uM using L-DOPA as substrate preincubated for 10 mins followed by substrate addition measured up to 5 mins by Line-weaver Burk plot analysis
[8] = molecular target: T2, Tyrosinase (Agaricus bisporus); test: Non-competitive inhibition of mushroom tyrosinase assessed as 1/Vmax at 0.542 uM using L-DOPA as substrate preincubated for 10 mins followed by substrate addition measured up to 5 mins by Line-weaver Burk plot analysis
[9] = molecular target: T2, Tyrosinase (Agaricus bisporus); test: Non-competitive inhibition of mushroom tyrosinase assessed as 1/Vmax at 1.084 uM using L-DOPA as substrate preincubated for 10 mins followed by substrate addition measured up to 5 mins by Line-weaver Burk plot analysis
[10] = molecular target: T2, Tyrosinase (Agaricus bisporus); test: Non-competitive inhibition of mushroom tyrosinase assessed as 1/Vmax at 2.18 uM using L-DOPA as substrate preincubated for 10 mins followed by substrate addition measured up to 5 mins by Line-weaver Burk plot analysis
[11] = molecular target: T2, Tyrosinase (Agaricus bisporus); test: Non-competitive inhibition of mushroom tyrosinase assessed as 1/Vmax at 4.336 uM using L-DOPA as substrate preincubated for 10 mins followed by substrate addition measured up to 5 mins by Line-weaver Burk plot analysis
[12] = compound: CCCCC(=O)NC(=S)Nc1ccc(OC)cc1; test: Non-competitive inhibition of mushroom tyrosinase assessed as substrate Km at 0.271 uM using L-DOPA as substrate preincubated for 10 mins followed by substrate addition measured up to 5 mins by Line-weaver Burk plot analysis; details: Agaricus bisporus
[13] = compound: CCCCC(=O)NC(=S)Nc1ccc(OC)cc1; test: Non-competitive inhibition of mushroom tyrosinase assessed as substrate Km at 0.542 uM using L-DOPA as substrate preincubated for 10 mins followed by substrate addition measured up to 5 mins by Line-weaver Burk plot analysis; details: Agaricus bisporus
[14] = compound: CCCCC(=O)NC(=S)Nc1ccc(OC)cc1; test: Non-competitive inhibition of mushroom tyrosinase assessed as substrate Km at 1.084 uM using L-DOPA as substrate preincubated for 10 mins followed by substrate addition measured up to 5 mins by Line-weaver Burk plot analysis; details: Agaricus bisporus
[15] = compound: CCCCC(=O)NC(=S)Nc1ccc(OC)cc1; test: Non-competitive inhibition of mushroom tyrosinase assessed as substrate Km at 2.18 uM using L-DOPA as substrate preincubated for 10 mins followed by substrate addition measured up to 5 mins by Line-weaver Burk plot analysis; details: Agaricus bisporus
[16] = compound: CCCCC(=O)NC(=S)Nc1ccc(OC)cc1; test: Non-competitive inhibition of mushroom tyrosinase assessed as substrate Km at 4.336 uM using L-DOPA as substrate preincubated for 10 mins followed by substrate addition measured up to 5 mins by Line-weaver Burk plot analysis; details: Agaricus bisporus

IC50 [1]: 19.7 µM
Molecule: CCCCC(=O)NC(=S)Nc1c(C)cc(C)cc1C
Activity [2]: inactive

IC50 [1]: 16.6 µM
Molecule: CCCCC(=O)NC(=S)Nc1cccc([N+](=O)[O-])c1
Activity [2]: inactive

IC50 [1]: 2.32 µM
Molecule: CCCCC(=O)NC(=S)Nc1ccc(Cl)cc1
Activity [2]: inactive

IC50 [1]: 10.1 µM
Molecule: CCCCC(=O)NC(=S)Nc1ccc([N+](=O)[O-])cc1[N+](=O)[O-]
Activity [2]: inactive

IC50 [1]: 6.46 µM
Molecule: CCCCC(=O)NC(=S)Nc1ccc(Br)cc1F
Activity [2]: inactive

IC50 [1]: 7.75 µM
Molecule: CCCCC(=O)NC(=S)Nc1cccc(Cl)c1Cl
Activity [2]: inactive

IC50 [1]: 19.5 µM
Molecule: CCCCC(=O)NC(=S)Nc1c(Br)cc(F)cc1Br
Activity [2]: inactive

inhibition [3]: Active
IC50 [1]: 1.57 µM
Ratio IC50 [4]: 15
Ki [5]: 1.1 µM
inhibition [6]: Active
1/Vmax [7]: 28600 deltaA/s
1/Vmax [8]: 52400 deltaA/s
1/Vmax [9]: 90500 deltaA/s
1/Vmax [10]: 110000 deltaA/s
1/Vmax [11]: 186000 deltaA/s
Molecule: CCCCC(=O)NC(=S)Nc1ccc(OC)cc1
Activity [2]: 80%

IC50 [1]: 3.37 µM
Molecule: CCCCC(=O)NC(=S)Nc1ccc(Br)cc1
Activity [2]: inactive

IC50 [1]: 7.99 µM
Molecule: CCCCC(=O)NC(=S)Nc1ccc([N+](=O)[O-])cc1
Activity [2]: inactive

B1: Tyrosinase (Agaricus bisporus), O42713 (protein)
chain: T1 sequence (O42713 whole entry)
Km [12]: 389 µM
Km [13]: 389 µM
Km [14]: 389 µM
Km [15]: 389 µM
Km [16]: 389 µM
